# Experimental data as given in patent publication US20240299361A1, “VETERINARY TRANSDERMAL GEL COMPRISING ONDANSETRON, AND RELATED METHODS” (Verté Therapeutics, LLC, priority 2023, published 2024).
# Counter-ions that a name gives are not always drawn.
# Test: Visual solubility screen for Ondansetron HCl in solvents/excipients
# Format: physicochemical
# Description: The purpose of this study was to evaluate the solubility of Ondansetron HCl in an array of solvents/excipients to develop a stable topical formulation for transdermal application in cats and dogs. In this screen, evaluation of solubility was determined by visual examination only.
# The following procedure was used to determine solubility of the API (Ondansetron HCl): • a. Label 20 mL USP Type I scintillation vials appropriately for each solvent/solvent blend that will be tested. Although API is light sensitive, clear glass vials will be used, as the study is a visual assessment only. • b. Place a stir bar in each vial. Weigh the empty vial containing stir bar and cap with inert liner. Record the tare weight. • c. Weigh approximately 3.0 g of each solvent into the designated vial. • d. Weigh approximately 30.0 mg of the API into each vial. • e. Place all closed vials on a stir plate and allow mixing for at least 30 minutes at ambient conditions. • f. Visually inspect to see if the API has completely dissolved. Record the stir time and observations. • g. If the API has dissolved, repeat steps d to f until saturation solubility is achieved or up to 10% w/w. • h. Record additional API aliquots added to the mixture. Continue stirring solutions overnight at ambient temperature to confirm solubility is maintained. • i. Record the final weight of the vial, cap, stir bar, and sample to calculate the total amount of active and/or solvent added at room temperature. • j. Heat (if applicable) all the vials in which API is not soluble to 65° C. for 1 hour and check the solubility. Allow them to cool to room temperature and check for any precipitation in the vials in which API was soluble when heated. Perform microscopy as deemed necessary. • k. Confirm the pH of buffer solutions after addition and solubilization (if applicable) of the API. • l. Record final observations and take pictures as needed to document the observations.
# Upon addition of Ondansetron HCl to each solvent, vials were subjected to stirring at room temperature at 400 RPM.
# For the secondary solvent solubility screen, solvents which required heating as primary systems were blended at a 1:1 ratio with other solubilizers being screened.
compound,measurement,setting,value
Cc1nccn1CC1CCc2c(c3ccccc3n2C)C1=O (stereo not shown) [Ondansetron HCl],Solubility (visual),"in Citrate buffer USP (pH 3.0), without heating",at least 1 % w/w
same,Solubility achieved (visual),in DMSO,≥ 10%
same,Solubility (visual),"in DMSO, without heating",at least 1 % w/w
same,Solubility (visual),"in PEG 400, without heating",at least 1 % w/w
same,Solubility (visual),"in absolute alcohol, without heating",at least 1 % w/w
same,Solubility achieved (visual),in benzyl alcohol,≥ 10%
same,Solubility (visual),"in benzyl alcohol, without heating",at least 1 % w/w
same,Solubility (visual),"in diethylene glycol monoethyl ether, without heating",at least 1 % w/w
same,Solubility achieved (visual),in propylene glycol,≥ 10%
same,Solubility (visual),"in propylene glycol, without heating",at least 1 % w/w
